Several values for one entry are separate records, joined by “and”; a condition that tells them apart may be missing. Equal values may be shown once.
Experiments:
Experiment in all cases: Two-electrode voltage clamp of mutant KCNQ1 in Xenopus oocytes
Type in all cases: cell-based
KCNQ1 K354A/K358A = KCNQ1 K354A/K358A (Homo sapiens, UniProt P51787, K354A/K358A)
Source text: (§1) In a previous study, mutation of residues in the predicted PIP2-binding site reduced KCNQ1 currents. CP1 modifies voltage-dependent activation of KCNQ1 channels by shifting the voltage dependence of channel opening, measured as the voltage dependence of the conductance (G–V) relationship, to more negative voltages (Fig. 1c) among other characteristics (see below). We made mutations to the residues around the CP1-interacting pocket as indicated by molecular docking (Fig. 1b), and examined the effects of the mutations on the CP1-induced shift of the G–V relationship. The mutations of the KCNQ1 residues that interact with CP1 in docking simulations reduced the shift of the G–V relationship (Fig. 1c, d), supporting the interaction of these residues with CP1.
(§2) Complementary DNA (cDNA) encoding human KCNQ1 (UniProtKB/Swiss‐Prot under accession no. P51787), KCNQ2 (O43526), KCNQ3 (O43525), KCNE1 (P15382), Kir1.1 (P48048), hERG (Q12809), KV4.2 (Q63881), NaV1.5 (Q14524), NaV β1 (Q07699), CaV1.2 (Q13936), CaV β1a (Q02641), CaV α2/δ1 (P54289), and HCN4 (Q9Y3Q4) were subcloned into oocyte expression vectors, respectively. Site-directed mutations of the KCNQ1 channel were all produced by overlap extension polymerase chain reaction (PCR) with high-fidelity Pfu polymerase (Stratagene, CA). The presence of the desired mutation was verified by sequencing the PCR-amplified regions. All the primer sequences used in this study are available in Supplementary Table 1. The complementary RNA (cRNA) of all these channels and mutations was transcribed in vitro with the T3, T7, or SP6 polymerase mMessage mMachine kit (Invitrogen, Thermo Fisher Scientific, MO).
(§3) The use of Xenopus laevis to obtain oocytes was approved by the Washington University Animal Studies Committee (protocol #20190030). Oocytes were manually dispersed and digested with collagenase (0.5 mg/ml, Sigma-Aldrich, Saint Louis, MO) to remove the follicle cell layer. Stage V or VI oocytes were selected and injected with cRNAs (9.2 ng) of channel or mutations. Especially, to characterize IKs, a mix of cRNAs at a molar ratio 4:1 (KCNQ1:KCNE1) was injected. For KCNQ2/KCNQ3, the molar ratio was 1:1 (KCNQ2:KCNQ3). For sodium channels, a 3:1 molar ratio (β1:NaV1.5) and for calcium channels a weight ratio 1:1:1 (β1:α2/δ1:CaV1.2) was injected, respectively. Injected oocytes were incubated in ND96 solution containing (in mM) 96 NaCl, 2 KCl, 1.8 CaCl2, 1 MgCl2, and 5 HEPES, pH 7.6, supplemented with 2.5 mM Na pyruvate and 1% penicillin–streptomycin, at 18 °C for 3–7 days before recording.
(§4) The whole-oocyte ionic currents were recorded with a GeneClamp 500B amplifier (Axon Instruments, CA) or iTEV90 amplifier (HEKA, Germany) and then sampled at 1 kHz and low-pass-filtered at 2 kHz. The Patchmaster software (HEKA, Germany) was used to acquire data. The Kir1.1 current was recorded with a high K^+ bath solution containing (in mM) 96 KCl, 4 NaCl, 1 CaCl2, 2 MgCl2, and 10 HEPES, pH 7.3–7.4. The HCN4 current was recorded in ND66 solution containing (in mM) 66 NaCl, 32 KCl, 1.8 CaCl2, 1 MgCl2, and 5 HEPES, pH 7.6. All the other potassium channels were recorded in ND96 solution. The currents of CaV1.2 channel were recorded in 40 mM Ba^2+ bath solution containing (in mM) 40 Ba(OH)2, 50 TEA-OH, 2 KOH, and 5 HEPES, adjusted to pH 7.4 with methanesulfonic acid. CP1 (DISODIUM 5-BROMO-2-[9-CHLORO-3-(SULFONATOOXY) NAPHTHO [1,2-B] THIEN-2-YL]-1H-INDOL-3-YL SULFATE, Sigma-Aldrich, MO) and Chromanol 293B (Sigma-Aldrich, MO) were dissolved in bath solutions. All the chemicals were purchased from Sigma-Aldrich. To measure the I–V relations of the Kir1.1 channel, the test voltage was set from −100 to +60 mV for 1 s with 20-mV increments. The test pulses were stepped from a holding potential of 0 mV and then stepped back to 0 mV. The HCN4 currents were recorded by a test pulse between −30 and −140 mV in 10-mV step from a holding potential of −30 mV. […]

KCNQ1 R249A/K354A = KCNQ1 R249A/K354A (Homo sapiens, UniProt P51787, K354A/R249A); conditions: 10 µM CP1, individual oocytes
Source text: as §1, §2, §3, §4

KCNQ1 K358A = KCNQ1 K358A (Homo sapiens, UniProt P51787, K358A)
Source text: as §1, §2, §3, §4

KCNQ1 Q359A = KCNQ1 Q359A (Homo sapiens, UniProt P51787, Q359A); conditions: 10 µM CP1, individual oocytes
Source text: as §1, §2, §3, §4

KCNQ1 K354A = KCNQ1 K354A (Homo sapiens, UniProt P51787, K354A)
Source text: as §1, §2, §3, §4

`O=S(=O)([O-])Oc1c(-c2sc3c(ccc4cccc(Cl)c43)c2OS(=O)(=O)[O-])[nH]c2ccc(Br)cc12.[Na+].[Na+]` [CP1, DISODIUM 5-BROMO-2-[9-CHLORO-3-(SULFONATOOXY) NAPHTHO [1,2-B] THIEN-2-YL]-1H-INDOL-3-YL SULFATE] gave a G/Gmax (KCNQ1 K354A/K358A; 10 µM CP1, 0 mV) of 0.9071, a G/Gmax (KCNQ1 K354A/K358A; 10 µM CP1, 10 mV) of 0.9519 and a G/Gmax (KCNQ1 K354A/K358A; 10 µM CP1, 20 mV) of 0.9897. It also gave a G/Gmax (KCNQ1 K354A/K358A; 10 µM CP1, 30 mV) of 1.0000, a G/Gmax (KCNQ1 K354A/K358A; 10 µM CP1, -10 mV) of 0.8497 and a G/Gmax (KCNQ1 K354A/K358A; 10 µM CP1, -20 mV) of 0.7541. The G/Gmax (KCNQ1 K354A/K358A; 10 µM CP1, -30 mV) was 0.6165, the G/Gmax (KCNQ1 K354A/K358A; 10 µM CP1, -40 mV) was 0.4576 and the G/Gmax (KCNQ1 K354A/K358A; 10 µM CP1, -50 mV) was 0.3124. The G/Gmax (KCNQ1 K354A/K358A; 10 µM CP1, -60 mV) was 0.2094, the G/Gmax (KCNQ1 K354A/K358A; 10 µM CP1, -70 mV) was 0.1390 and the G/Gmax (KCNQ1 K354A/K358A; 10 µM CP1, -80 mV) was 0.0950. The G/Gmax (KCNQ1 K354A/K358A; 10 µM CP1, -90 mV) was 0.0670, the G/Gmax (KCNQ1 K354A/K358A; 10 µM CP1, -100 mV) was 0.0415 and the G/Gmax (KCNQ1 K354A/K358A; 10 µM CP1, -110 mV) was 0.0111. For the same compound, the G/Gmax (KCNQ1 K354A/K358A; 10 µM CP1, -120 mV) was 0.0033, the “∆V1/2” value (KCNQ1 K354A/K358A; 10 µM CP1, individual oocytes) was 24.6605 mV and 42.476 mV and 38.8398 mV and 35.894 mV and the “∆V1/2” value (KCNQ1 R249A/K354A) was 32.102 mV and 39.1842 mV and 11.494 mV and 26.1488 mV and 17.9511 mV. For the same compound, the G/Gmax (KCNQ1 K358A; 10 µM CP1, 0 mV) was 0.9554, the G/Gmax (KCNQ1 K358A; 10 µM CP1, 10 mV) was 0.9870 and the G/Gmax (KCNQ1 K358A; 10 µM CP1, 20 mV) was 1.0000. The G/Gmax (KCNQ1 K358A; 10 µM CP1, -10 mV) was 0.8985, the G/Gmax (KCNQ1 K358A; 10 µM CP1, -20 mV) was 0.8248 and the G/Gmax (KCNQ1 K358A; 10 µM CP1, -30 mV) was 0.7348. For the same compound, the G/Gmax (KCNQ1 K358A; 10 µM CP1, -40 mV) was 0.6300, the G/Gmax (KCNQ1 K358A; 10 µM CP1, -50 mV) was 0.5260 and the G/Gmax (KCNQ1 K358A; 10 µM CP1, -60 mV) was 0.4207. For the same compound, the G/Gmax (KCNQ1 K358A; 10 µM CP1, -70 mV) was 0.3286, the G/Gmax (KCNQ1 K358A; 10 µM CP1, -80 mV) was 0.2595 and the G/Gmax (KCNQ1 K358A; 10 µM CP1, -90 mV) was 0.1953. It also gave a G/Gmax (KCNQ1 K358A; 10 µM CP1, -100 mV) of 0.1209, a G/Gmax (KCNQ1 K358A; 10 µM CP1, -110 mV) of 0.0580 and a G/Gmax (KCNQ1 K358A; 10 µM CP1, -120 mV) of 0.0105. The “∆V1/2” value (KCNQ1 K358A; 10 µM CP1, individual oocytes) was 15.3181 mV and 41.4752 mV and 28.1195 mV and 31.8534 mV and 36.2122 mV and 21.5083 mV and 28.8875 mV, the “∆V1/2” value (KCNQ1 Q359A) was 92.2901 mV and 78.8586 mV and 79.8593 mV and 57.9843 mV and the G/Gmax (KCNQ1 K354A; 10 µM CP1, -10 mV) was 1.0000. For the same compound, the G/Gmax (KCNQ1 K354A; 10 µM CP1, -20 mV) was 0.9896, the G/Gmax (KCNQ1 K354A; 10 µM CP1, -30 mV) was 0.9492 and the G/Gmax (KCNQ1 K354A; 10 µM CP1, -40 mV) was 0.8838. The G/Gmax (KCNQ1 K354A; 10 µM CP1, -50 mV) was 0.7639, the G/Gmax (KCNQ1 K354A; 10 µM CP1, -60 mV) was 0.6020 and the G/Gmax (KCNQ1 K354A; 10 µM CP1, -70 mV) was 0.4417. It also gave a G/Gmax (KCNQ1 K354A; 10 µM CP1, -80 mV) of 0.3190, a G/Gmax (KCNQ1 K354A; 10 µM CP1, -90 mV) of 0.2082 and a G/Gmax (KCNQ1 K354A; 10 µM CP1, -100 mV) of 0.1212. For the same compound, the G/Gmax (KCNQ1 K354A; 10 µM CP1, -110 mV) was 0.0566, the G/Gmax (KCNQ1 K354A; 10 µM CP1, -120 mV) was 0.0000 and the “∆V1/2” value (KCNQ1 K354A; 10 µM CP1, individual oocytes) was 42.6379 mV and 47.4781 mV and 37.0916 mV and 51.9279 mV and 26.7588 mV.
